Like-named read-outs stand apart in the source and are kept apart here.

Assay [1] deals with rabbits. Particulars: cited from earlier work.
Assay [2] deals with monkeys. Particulars: Curr. Eye Res. 2, 281-288; cited from earlier work.
For assay [3], the system named is Cebus apella monkeys. Briefly: Intraocular pressure (IOP) measurement after topical unilateral application to the eye of monkeys. In kind it is in vivo. Particulars: female Cebus apella monkeys, 50ul aliquots, doses 0.165, 0.5 and 1.65 mg, IOP at 0.5, 1, 2, 3, 4 and 5 hours post drug, compared to vehicle alone. As for the experimental part: Male, albino New Zealand rabbits, and female Cebus apella monkeys are used in the example. Rabbits are used primarily to screen for undue ocular toxicity of 2-(N-propyl-N-2-phenylethylamino)-5-hydroxytetralin (active compound) before conducting experiments in monkeys.
A racemic mixture of 2-(N-propyl-N-2-phenylethylamino)-5-hydroxytetralin (active compound) is dissolved in distilled water (vehicle or carrier) on the day of the experiment. Solutions are administered in a masked manner, that is, solutions are prepared by a person that was neither involved in drug administration nor measurement of intraocular pressure (IOP) and pupil diameter (PD). The solution of the active compound is applied unilaterally with the contralateral (fellow) eye receiving vehicle only. Five monkeys are treated bilaterally with vehicle; one to two vehicle-treated monkeys are included each time a different dose of the active compound is used. Doses of active compound tested are: 0.165, 0.5 and 1.65 mg.
After taking two baseline (0 time) measurements, aliquots (50ul) of the solution of active compound and/or vehicle, only, are administered topically. Subsequently, IOP measurements are made at 0.5, 1, 2, 3, 4 and 5 hours post drug.

[4] abbreviates: rabbits, Curr. Eye Res. 2, 281-288 and 3, 307-314.

For the molecule `CCCN1C[C@H](CSC)C[C@@H]2c3cccc4[nH]cc(c34)C[C@H]21` [pergolide], the “intraocular pressure of rabbits” value in assay [1] (setting [4]) is “lower the intraocular pressure of rabbits”. Moreover, the “intraocular pressure of monkeys” value in assay [2] is reported as “lowered the intraocular pressure of monkeys”. Take `CN1C[C@H](CC#N)C[C@@H]2c3cccc4[nH]c(Cl)c(c34)C[C@H]21` [lergotrile]: in assay [1] (setting [4]), the “intraocular pressure of rabbits” value was “lower the intraocular pressure of rabbits”. For the same molecule, the “intraocular pressure of monkeys” value in assay [2] was “lowered the intraocular pressure of monkeys”. In the case of `CCCN(CCc1ccccc1)C1CCc2c(O)cccc2C1` (racemic) [active compound, 2-(N-propyl-N-2-phenylethylamino)-5-hydroxytetralin], in assay [3], the intraocular pressure result is reported as “effectively lower the intraocular pressure”. For `CC(C)C[C@H]1C(=O)N2CCC[C@H]2[C@]2(O)O[C@](NC(=O)[C@@H]3C=C4c5cccc6[nH]c(Br)c(c56)C[C@H]4N(C)C3)(C(C)C)C(=O)N12` [Bromocriptine], the “intraocular pressure of rabbits” value in assay [1] (rabbit, in vivo) was “lower the intraocular pressure of rabbits”.

The values above are taken from patent publication EP0257285A2, “Method and compositions for reducing the intraocular pressure of mammals” (Whitby Research Incorporated, priority 1986, dated 1988).
